Results from ChEMBL document CHEMBL1201862, “PubChem BioAssay data set” (2004).
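Tested at 5 concentrations; 48 h exposure; 96-well plates; endpoints linearly interpolated, else capped at highest concentration. GI50: concentration for 50% inhibition of growth.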 Active and inactive are the calls of the source. Cut-off read from the data, not from the text of the source: active = GI50 up to about 1.1 µM and inactive = higher.

Experiments:
Assay in all cases: NCI-60 cell line screen, 48 h
RXF 393 = tested on: RXF 393
SNB-75 = tested on: SNB-75
UACC-257 = tested on: UACC-257
MOLT-4 = tested on: MOLT-4
OVCAR-3 = tested on: OVCAR-3
HOP-92 = tested on: HOP-92
OVCAR-4 = tested on: OVCAR-4
CCRF-CEM = tested on: CCRF-CEM
NCI-H23 = tested on: NCI-H23
K562 = tested on: K562
SN12C = tested on: SN12C
A498 = tested on: A498
SNB-19 = tested on: SNB-19
LOX IMVI = tested on: LOX IMVI
M14 = tested on: M14
EKVX = tested on: EKVX
NCI-H226 = tested on: NCI-H226
SF-268 = tested on: SF-268
SF-295 = tested on: SF-295

COC(=O)c1ccccc1NC(=O)C(=O)Cc1nc2c3c(ccc2nc1O)C(=O)c1ccccc1C3=O
GI50 (RXF 393): 2.08 µM (inactive) | GI50 (SNB-75): 28.1 µM (inactive) | GI50 (UACC-257): 16.3 µM (inactive) | GI50 (MOLT-4): 10.3 µM (inactive) | GI50 (OVCAR-3): 15 µM (inactive) | GI50 (HOP-92): 15.8 µM (inactive) | GI50 (OVCAR-4): 9.06 µM (inactive) | GI50 (CCRF-CEM): 3.75 µM (inactive) | GI50 (NCI-H23): 11.5 µM (inactive) | GI50 (K562): 23.9 µM (inactive) | GI50 (SN12C): 29.6 µM (inactive) | GI50 (A498): 35.1 µM (inactive) | GI50 (SNB-19): 12.6 µM (inactive) | GI50 (LOX IMVI): 12.5 µM (inactive) | GI50 (M14): 12.7 µM (inactive) | GI50 (EKVX): 5.21 µM (inactive) | GI50 (NCI-H226): 4.48 µM (inactive) | GI50 (SF-268): 6.38 µM (inactive)

O=[N+]([O-])c1nc(-c2ccccn2)[nH]c1[N+](=O)[O-]
GI50 (SF-295): > 100 µM (inactive) | GI50 (RXF 393): 76.7 µM (inactive) | GI50 (SNB-75): 64 µM (inactive) | GI50 (UACC-257): 53.2 µM (inactive) | GI50 (MOLT-4): 39.2 µM (inactive) | GI50 (OVCAR-3): 59.2 µM (inactive) | GI50 (HOP-92): > 100 µM (inactive) | GI50 (OVCAR-4): 44.2 µM (inactive) | GI50 (CCRF-CEM): 33.3 µM (inactive) | GI50 (NCI-H23): 42.4 µM (inactive) | GI50 (K562): > 100 µM (inactive) | GI50 (SN12C): 71.6 µM (inactive) | GI50 (A498): > 100 µM (inactive) | GI50 (SNB-19): > 100 µM (inactive) | GI50 (LOX IMVI): 68.7 µM (inactive) | GI50 (M14): 80.5 µM (inactive) | GI50 (EKVX): > 100 µM (inactive) | GI50 (NCI-H226): 74.1 µM (inactive) | GI50 (SF-268): 43.6 µM (inactive)

O=C(O)c1ccc(NC(=O)C2C(=O)C(=O)N(c3ccc(C(=O)O)cc3)C2=O)cc1 (configuration not stated)
GI50 (SF-295): > 100 µM (inactive) | GI50 (RXF 393): > 100 µM (inactive) | GI50 (SNB-75): > 100 µM (inactive) | GI50 (UACC-257): > 100 µM (inactive) | GI50 (MOLT-4): > 100 µM (inactive) | GI50 (OVCAR-3): > 100 µM (inactive) | GI50 (HOP-92): > 100 µM (inactive) | GI50 (OVCAR-4): > 100 µM (inactive) | GI50 (CCRF-CEM): > 100 µM (inactive) | GI50 (NCI-H23): > 100 µM (inactive) | GI50 (K562): > 100 µM (inactive) | GI50 (SN12C): > 100 µM (inactive) | GI50 (A498): > 100 µM (inactive) | GI50 (SNB-19): > 100 µM (inactive) | GI50 (LOX IMVI): > 100 µM (inactive) | GI50 (EKVX): > 100 µM (inactive) | GI50 (NCI-H226): > 100 µM (inactive) | GI50 (SF-268): > 100 µM (inactive)

CC(=O)C(CN(Cc1ccccc1)Cc1ccccc1)C(c1ccccc1)c1c(O)c2ccccc2oc1=O (configuration not stated)
GI50 (SF-295): > 100 µM (inactive) | GI50 (RXF 393): > 100 µM (inactive) | GI50 (SNB-75): > 100 µM (inactive) | GI50 (UACC-257): > 100 µM (inactive) | GI50 (OVCAR-3): > 100 µM (inactive) | GI50 (HOP-92): 18.9 µM (inactive) | GI50 (OVCAR-4): > 100 µM (inactive) | GI50 (CCRF-CEM): > 100 µM (inactive) | GI50 (NCI-H23): > 100 µM (inactive) | GI50 (K562): > 100 µM (inactive) | GI50 (SN12C): > 100 µM (inactive) | GI50 (A498): > 100 µM (inactive) | GI50 (SNB-19): > 100 µM (inactive) | GI50 (LOX IMVI): > 100 µM (inactive) | GI50 (M14): > 100 µM (inactive) | GI50 (EKVX): > 100 µM (inactive) | GI50 (NCI-H226): > 100 µM (inactive) | GI50 (SF-268): > 100 µM (inactive)

O=C(Nc1ccn(CCO)c(=O)n1)c1ccccc1
GI50 (SF-295): > 100 µM (inactive) | GI50 (RXF 393): > 100 µM (inactive) | GI50 (SNB-75): > 100 µM (inactive) | GI50 (UACC-257): > 100 µM (inactive) | GI50 (OVCAR-3): > 100 µM (inactive) | GI50 (HOP-92): > 100 µM (inactive) | GI50 (OVCAR-4): > 100 µM (inactive) | GI50 (CCRF-CEM): > 100 µM (inactive) | GI50 (K562): > 100 µM (inactive) | GI50 (SN12C): > 100 µM (inactive) | GI50 (A498): > 100 µM (inactive) | GI50 (LOX IMVI): > 100 µM (inactive) | GI50 (M14): > 100 µM (inactive) | GI50 (EKVX): > 100 µM (inactive) | GI50 (NCI-H226): > 100 µM (inactive) | GI50 (SF-268): > 100 µM (inactive)

O=C(NC1CCN(Cc2ccccc2)CC1)c1ccccc1I
GI50 (SF-295): 20.2 µM (inactive) | GI50 (RXF 393): 43.9 µM (inactive) | GI50 (UACC-257): 18.1 µM (inactive) | GI50 (MOLT-4): 17 µM (inactive) | GI50 (OVCAR-3): 43.9 µM (inactive) | GI50 (HOP-92): 28.7 µM (inactive) | GI50 (OVCAR-4): 86.3 µM (inactive) | GI50 (CCRF-CEM): 24.3 µM (inactive) | GI50 (NCI-H23): 26.2 µM (inactive) | GI50 (K562): 23.3 µM (inactive) | GI50 (SN12C): 62.7 µM (inactive) | GI50 (A498): 57 µM (inactive) | GI50 (SNB-19): 51.4 µM (inactive) | GI50 (LOX IMVI): 17.5 µM (inactive) | GI50 (M14): 18.7 µM (inactive) | GI50 (EKVX): 43.3 µM (inactive) | GI50 (NCI-H226): 25.8 µM (inactive) | GI50 (SF-268): 39.3 µM (inactive)

CCCO/N=[N+](\[O-])N(CC)CC
GI50 (SF-295): > 100 µM (inactive) | GI50 (RXF 393): > 100 µM (inactive) | GI50 (UACC-257): > 100 µM (inactive) | GI50 (MOLT-4): > 100 µM (inactive) | GI50 (OVCAR-3): > 100 µM (inactive) | GI50 (HOP-92): > 100 µM (inactive) | GI50 (CCRF-CEM): > 100 µM (inactive) | GI50 (NCI-H23): > 100 µM (inactive) | GI50 (K562): > 100 µM (inactive) | GI50 (SN12C): > 100 µM (inactive) | GI50 (A498): > 100 µM (inactive) | GI50 (SNB-19): > 100 µM (inactive) | GI50 (LOX IMVI): > 100 µM (inactive) | GI50 (M14): > 100 µM (inactive) | GI50 (EKVX): > 100 µM (inactive) | GI50 (NCI-H226): > 100 µM (inactive) | GI50 (SF-268): > 100 µM (inactive)

Nc1nc(=O)[nH]c2c1cnn2COCCO
GI50 (SF-295): > 100 µM (inactive) | GI50 (RXF 393): 22.3 µM (inactive) | GI50 (SNB-75): > 100 µM (inactive) | GI50 (UACC-257): > 100 µM (inactive) | GI50 (MOLT-4): > 100 µM (inactive) | GI50 (HOP-92): > 100 µM (inactive) | GI50 (OVCAR-4): > 100 µM (inactive) | GI50 (CCRF-CEM): > 100 µM (inactive) | GI50 (NCI-H23): 17.3 µM (inactive) | GI50 (K562): > 100 µM (inactive) | GI50 (SN12C): > 100 µM (inactive) | GI50 (A498): > 100 µM (inactive) | GI50 (SNB-19): > 100 µM (inactive) | GI50 (LOX IMVI): > 100 µM (inactive) | GI50 (M14): > 100 µM (inactive) | GI50 (EKVX): > 100 µM (inactive) | GI50 (NCI-H226): 0.281 µM (active) | GI50 (SF-268): > 100 µM (inactive)
